Assays:
clinical [1] = settings: human, in vivo, po
Procedure: The Tmax can be identified from this dependence.
FIG. 11 is illustrative of the relative change in charge of the ions inside the arterial blood stream vs time after ingesting 500 mg of acetaminophen. […] The Tmax can be identified from this graph, and is detected as being approximately 30 min.
The initial dosage is Din is ˜500 mg of acetaminophen. The maximum drug concentration in arterial blood stream is 60 mg/L at Din=500 mg ([…]) and Tmax˜30 min from the measurements from the GM sensor.
Vs. The next step is to calculate (Vs0−Vs)0.

[2] = Din=500 mg acetaminophen; taken from known drug data; cited from earlier work
[3] = caffeine: one cup of coffee (100 mg caffeine); alcohol: no sign of alcohol in blood; cited from earlier work
[4] = Din=50 mg caffeine; taken from known drug data; cited from earlier work
clinical [5] = settings: human, in vivo, po; remark: listed apart in the source
Source text: FIG. 6 is illustrative of the GM magnetic signal vs time at different pressures by adjusting the pressure applied by the pressure cuff 12 on the arm of the patient. Initially, the cuff pressure is zero and the GM signal is flat. After around 10 seconds, the cuff pressure is increased and after 20 seconds, the cuff pressure reaches approximately 120 mm Hg. […] The GM signal is almost flat from 20 seconds to 60 seconds because the flow of blood through the blood vessel is stopped. When the cuff pressure was released quickly at about 60 seconds, the GM signal returned to the level similar to the initial measurement. […] At the pressure of 120 mm Hg or greater there is, no arterial blood flow and no electrical current. The difference of two levels in the beginning and around 60 seconds gives the absolute value of the magnetic field which is detected by the GM sensor. […]
Basic data for the detected drugs includes the initial dosages of the drug Din which depend on the maximum concentration Cmax in blood at a certain time Tmax. […] The absolute value of the drug concentration is determined based on the measured signal Vs and time Tmax at which the concentration of drug is detected at a maximum value in the blood stream.
The signal Vs was measured at different times after ingestion of the caffeine to verify the time dependence of the drug concentration in blood. […]

SMILES: CC(=O)Nc1ccc(O)cc1 [acetaminophen]
- Tmax (clinical [1]): ~0.5 h
- Cmax, maximum drug concentration in arterial blood stream [2]: 60 µg/mL

SMILES: CCO [alcohol]
- time after which the level in blood has declined to zero [3]: about 12 hours

SMILES: Cn1c(=O)c2c(ncn2C)n(C)c1=O [caffeine]
- Cmax, maximum drug concentration in the arterial blood stream [4]: about 1 mg/L
- time after which the level in blood has declined to zero [3]: about 4 hours
- Tmax (clinical [5]): ~2 h

Source: patent publication US20200397332A1, “NON-INVASIVE METHOD AND DEVICE FOR DETERMINING DRUG CONCENTRATIONS IN BLOOD” (priority 2019, published 2020)
